Experiment [1] concerns Bacillus subtilis. In words: Antibacterial activity against Bacillus subtilis 168. The format is functional, organism-based. To be noted: subsp. subtilis str. 168.
For experiment [2], the system named is Staphylococcus aureus. In words: Antibacterial activity against Staphylococcus aureus ATCC 25923. Type of experiment: functional, organism-based.
Experiment [3] concerns Escherichia coli. Put plainly: Antibacterial activity against Escherichia coli ATCC 25922. The format is functional, organism-based.
The subject of experiment [4] is Escherichia coli. In words: Antibacterial activity against Escherichia coli HB 101. The format is functional, organism-based.
For experiment [5], the system named is Candida albicans. Put plainly: Antifungal activity against Candida albicans at 100 umol by agar diffusion assay. The format is functional. On the technique in general: Agar diffusion results depend on both activity and mobility in agar.
For experiment [6], the system named is Candida albicans. In words: Antifungal activity against Candida albicans at 50 umol by agar diffusion assay. The format is functional.
In experiment [7] the test system is Candida albicans. Put plainly: Antifungal activity against Candida albicans at 20 umol by agar diffusion assay. Type of experiment: functional.

The source made the active and inactive calls. The calls are words filed in the database; no cut-off is given here.

With `C[C@H]1C[C@H](O)CC(=O)c2c(O)cc(O)cc2CC(=O)O1`, the result in experiment [1], in experiment [2], in experiment [3] and in experiment [4] was inactive.
With `C[C@@H]1CCCC(=O)c2c(O)cc(O)cc2CC(=O)O1`, the result in experiment [1], in experiment [2], in experiment [3] and in experiment [4] was inactive.
As to `C[C@@H]1C[C@H](O)CCCC(=O)CC(=O)O1`, the result in experiment [1], in experiment [2], in experiment [3] and in experiment [4] was inactive.
As for `C[C@H]1CCC[C@H](O)CC(=O)c2c(O)cc(O)cc2CC(=O)O1`, the result in experiment [1], in experiment [2], in experiment [3] and in experiment [4] was inactive.
Consider `CC1C/C=C/C(=O)c2c(O)cc(O)cc2CC(=O)O1` (centres undefined), for which the result in experiment [1], in experiment [2], in experiment [3] and in experiment [4] was inactive.
Regarding `C[C@H]1CCC[C@@H](O)CC(=O)c2c(O)cc(O)cc2CC(=O)O1`, the result in experiment [1], in experiment [2], in experiment [3] and in experiment [4] was inactive.
As for `C[C@@H]1CCCC(=O)C[C@@H](O)CC(=O)O1`, the result in experiment [1], in experiment [2], in experiment [3] and in experiment [4] was inactive.
Turning to `C[C@@H]1C[C@H](O)CC(=O)c2c(O)cc(O)cc2CC(=O)O1` [XESTODECALACTONE B], the “inhibition zone (IZ)” value in experiment [5] is reported as 25 mm; in experiment [6], 12 mm; in experiment [7], 7 mm. Moreover, the outcome in experiment [1], in experiment [2], in experiment [3] and in experiment [4] was inactive.
For the compound `C[C@H]1CCCCCC(=O)c2c(O)cc(O)cc2CC(=O)O1`, the outcome in experiment [1], in experiment [2], in experiment [3] and in experiment [4] was inactive.

The values are drawn from ChEMBL document CHEMBL1150671, “Online analysis of xestodecalactones A-C, novel bioactive metabolites from the fungus Penicillium cf. montanense and their subsequent isolation from the sponge Xestospongia exigua” (2002).
